Read-outs that look alike come from different tables or passages of the source.
Legend:
PXR = target: T1, PXR (Homo sapiens, UniProt O75469); experiment: PXR assay (DPX2 luciferase reporter cells); format: cell-based; conditions: 24 h; for PXR Activation @30 uM (% Ctrl): positive control rifampicin
T1 construct: host or cells: DPX2 (HepG2)
T1 sequence (O75469 1-434): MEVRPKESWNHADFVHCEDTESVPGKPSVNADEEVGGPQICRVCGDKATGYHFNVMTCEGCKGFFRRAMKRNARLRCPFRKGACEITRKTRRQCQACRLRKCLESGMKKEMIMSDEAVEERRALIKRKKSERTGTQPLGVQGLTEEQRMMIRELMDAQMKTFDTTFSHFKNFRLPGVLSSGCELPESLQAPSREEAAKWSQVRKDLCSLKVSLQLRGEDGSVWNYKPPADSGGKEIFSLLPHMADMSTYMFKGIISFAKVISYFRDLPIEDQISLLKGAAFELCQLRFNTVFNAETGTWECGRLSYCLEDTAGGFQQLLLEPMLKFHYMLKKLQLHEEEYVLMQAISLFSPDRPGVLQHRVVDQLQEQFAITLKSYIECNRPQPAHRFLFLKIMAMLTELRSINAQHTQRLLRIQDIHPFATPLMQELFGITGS
Procedure: 1) Information of Cell Line
DPX2 (HepG2 cells stably transfected with PXR and luciferase reporter) cells were purchased from Puracyp Inc (Carlsbad, CA).
2) Experimental Procedures a) Reagents and Consumables
The DPX2 cells were cultured in the growth medium containing 1000 fetal bovine serum. The DPX2 cells in a T-75 flask were cultured in the […] incubator at 37° C. with 950% relative humidity, and digested when the cells grew to cover 80-90% of the bottom of the flask.
The surface layer of the T-75 cultured cells was washed with 10 mL of PBS; PBS was pipetted; 3-5 mL of tryp sin was added; the cells were digested at 37° C. for 5 minutes or until the cells were digested to be suspended; and excessive medium containing fetal bovine serum was added to stop trypsinization. The cell suspension was transferred to a conical-bottomed centrifuge tube and centrifuged at 150 g rpm for 5 minutes at room temperature; the supernatant was carefully pipetted; and the cells were resuspended with the treatment medium, with the concentration adjusted to 3.2×10^5 cells/mL (incubation time: 24 hours, plate seeding density: […]). 25 μL of the cell suspension was added to each well of the 384-well cell culture plate.
The cell culture plate was placed and cultured for 24 h in the […] incubator with 9500 humidity at 37° C. c) Formulation of Compound
The stock solution of each of 1000× test compound, the positive control (rifampicin), and the negative control (propranolol) was prepared with DMSO. The final concentrations of the positive control (rifampicin) were 1 μM and 10 μM, and the final concentration of the negative control (propranolol) was 10 μM. The final concentrations of the test compound were 10 μM, 1 μM, 0.1 μM, or EC50 (30 μM, 10 μM, 3 μM, 1 μM, 0.3 μM, 0.1 μM). The final concentration of DMSO was 0.10. The cell culture plate was taken out from the incubator, and 25 nL of the stock solution of the positive control, negative control or test compound was directly added with Echo, each with three parallel concentrations. The cell culture plate was placed in the incubator and continued to be incubated for 24 h. Before starting the assay with the substrate, the cell morphology and the monolayer integrity were checked to ensure that the monolayer was of acceptable research quality. […]
d) Quantitative Detection with PXR Activation
After 24 hours of dosing, the culture could be quantitatively detected with PXR activation. The CellTiter-Fluor™ Cell Viability Assay Kit and One-Glo Luciferase reagent were equilibrated to room temperature. The GF-AFC substrate (10 μL) was added to the assay buffer (10 ml) to develop a 2× reagent, which was then diluted into a 1× reagent with 10 ml of PBS. The ONE-Glo Luciferase substrate was added to the ONE-Glo Luciferase assay buffer. The culture plate was taken out from the incubator; the medium was discarded; 1× of CellTiter-Fluor™ reagent was poured into the loading slot; 25 μL of reagent were added per well to the culture plate with a pipetting workstation; and the culture plate was then incubated in the incubator for 30 minutes. The cell culture plate was taken out from the incubator, and cooled slightly to room temperature; and the fluorescence value was determined with a fully automatic quantitative microplate reader, with the excitation light of 400 nm and the emission light of 505 nm. The ONE-Glo reagent was poured into the loading slot, with 25 μL per well, and the resulting mixture was gently mixed in the plate, and incubated at room temperature for 5 minutes to determine the luminescence value.

PARG = PARG (Homo sapiens, UniProt Q86W56); experiment: Biochemical assay (PARG, TFMU-ADPr substrate)
PARG, sequence (Q86W56 whole entry): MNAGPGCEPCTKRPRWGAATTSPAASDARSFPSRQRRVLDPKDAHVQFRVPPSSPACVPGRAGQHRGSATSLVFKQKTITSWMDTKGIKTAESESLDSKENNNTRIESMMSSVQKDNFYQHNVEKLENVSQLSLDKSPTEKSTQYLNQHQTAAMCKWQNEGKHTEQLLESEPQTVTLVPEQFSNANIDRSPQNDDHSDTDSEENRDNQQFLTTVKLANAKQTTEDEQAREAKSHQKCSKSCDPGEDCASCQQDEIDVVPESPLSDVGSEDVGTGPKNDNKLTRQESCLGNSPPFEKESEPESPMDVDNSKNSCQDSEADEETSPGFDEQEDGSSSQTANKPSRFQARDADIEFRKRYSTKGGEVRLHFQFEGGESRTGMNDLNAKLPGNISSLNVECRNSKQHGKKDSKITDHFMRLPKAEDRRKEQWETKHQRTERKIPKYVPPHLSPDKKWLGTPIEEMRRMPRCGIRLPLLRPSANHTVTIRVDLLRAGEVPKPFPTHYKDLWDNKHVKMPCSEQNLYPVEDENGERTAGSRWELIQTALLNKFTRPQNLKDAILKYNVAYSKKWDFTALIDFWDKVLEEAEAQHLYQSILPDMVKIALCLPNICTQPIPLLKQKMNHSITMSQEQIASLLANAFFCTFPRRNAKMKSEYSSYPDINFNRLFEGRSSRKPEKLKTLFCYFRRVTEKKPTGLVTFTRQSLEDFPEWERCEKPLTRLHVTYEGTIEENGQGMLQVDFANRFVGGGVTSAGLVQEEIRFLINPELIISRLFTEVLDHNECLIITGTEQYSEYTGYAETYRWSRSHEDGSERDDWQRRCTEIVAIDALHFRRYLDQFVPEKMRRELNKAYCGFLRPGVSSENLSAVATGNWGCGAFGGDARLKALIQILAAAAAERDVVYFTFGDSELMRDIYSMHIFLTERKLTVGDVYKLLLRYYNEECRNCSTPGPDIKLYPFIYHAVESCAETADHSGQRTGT

HCC1806 = experiment: Cell viability assay (CellTiter-Glo); format: cell-based, Human; conditions: HCC1806, 7 days, CellTiter-Glo, read-out: IC50 (nM) in cell viability assay
[1] = system: Human breast squamous carcinoma cells HCC1806; experiment: Cell function assay (In-Cell Western, PAR/pADPr after MMS); format: cell-based; conditions: read-out: IC50 (nM) in cell function assay
Outline: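 HCC1806 cells adhered 24 h at 37 °C, 5% CO2, then were pretreated 1 h with compound (30000 nM down to 1 nM, plus 0 nM) or DMSO. MMS was then added at 0.5 mM final for 1 h before In-Cell Western detection of PAR/pADPr.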

[2] = 4 nM PARG, 66.2 uM TFMU-ADPr, 3 min at room temperature
[3] = HCC1806, In-Cell Western, MMS treatment
[4] = HCC1806, compound 1 h then 0.5 mM MMS 1 h, PAR/pADPr antibody, In-Cell Western

Row | SMILES | PXR Activation @30 uM (Fold) (PXR) | PXR Activation @30 uM (% Ctrl) (PXR) | IC50 (PARG; PARG, TFMU-ADPr substrate) | IC50 (HCC1806; Homo sapiens, HCC1806, 168 h) | IC50 (PARG; [2]) | IC50 [1, 3] | IC50 [1, 4] | IC50 (HCC1806)
1 | COC1(C(=O)N2CCN(c3cc(S(=O)(=O)NC4(C)CC4)cn4c(-c5nnc(C(F)(F)F)s5)ncc34)CC2)CC1 [Example 193, 8-(4-(1-methoxycyclopropane-1-carbonyl)piperazin-1-yl)-N-(1-methylcyclopropyl)-3-(5-(trifluoromethyl)-1,3,4-thiadiazol-2-yl)imidazo[1,5-a]pyridine-6-sulfonamide] | 2.4 Fold | 15 % Ctrl | 0.36 nM | 5.76 nM | – | – | – | –
2 | CC(C)C(=O)N1CCN(c2cc(S(=O)(=O)NC3(C)CCOC3)cn3c(-c4nnc(C(F)F)s4)ncc23)CC1 (stereo not shown) [Example 58, 3-(5-(difluoromethyl)-1,3,4-thiadiazol-2-yl)-8-(4-isobutyrylpiperazin-1-yl)-N-(3-methyltetrahydrofuran-3-yl)imidazo[1,5-a]pyridine-6-sulfonamide] | – | – | 25.1 nM | > 30000 nM | < 100 nM | 2870 nM | > 1000 nM | –
3 | CC1(O)CCN(c2cc(S(=O)(=O)NC3(C#N)CC3)cn3c(-c4nnc(C(F)F)s4)ncc23)CC1 [Example 65, N-(1-cyanocyclopropyl)-3-(5-(difluoromethyl)-1,3,4-thiadiazol-2-yl)-8-(4-hydroxy-4-methylpiperidin-1-yl)imidazo[1,5-a]pyridine-6-sulfonamide] | – | – | 7.02 nM | 5000 to 30000 nM | < 100 nM | 122 nM | 100 to 500 nM | 6000 nM
4 | CC(C)C(=O)N1CCN(c2cc(S(=O)(=O)NC3(C)COC3)cn3c(-c4nnc(C(F)F)s4)ncc23)CC1 [Example 43, 3-(5-(difluoromethyl)-1,3,4-thiadiazol-2-yl)-8-(4-isobutyrylpiperazin-1-yl)-N-(3-methyloxetan-3-yl)imidazo[1,5-a]pyridine-6-sulfonamide] | – | – | 0.96 nM | < 500 nM | < 100 nM | 9.32 nM | < 100 nM | 283 nM
5 | N#CC1(NS(=O)(=O)c2cc(N3CCN(C(=O)C4CC(F)(F)C4)CC3)c3cnc(-c4nnc(C(F)F)s4)n3c2)CC1 [Example 146, N-(1-cyanocyclopropyl)-8-(4-(3,3-difluorocyclobutane-1-carbonyl)piperazin-1-yl)-3-(5-(difluoromethyl)-1,3,4-thiadiazol-2-yl)imidazo[1,5-a]pyridine-6-sulfonamide] | – | – | 11.5 nM | 500 to 5000 nM | < 100 nM | 28.9 nM | < 100 nM | 692 nM
6 | CC1(NS(=O)(=O)c2cc(N3CCC4(CC3)COC4)c3cnc(-c4nnc(C(F)F)s4)n3c2)COC1 [Example 56, 3-(5-(difluoromethyl)-1,3,4-thiadiazol-2-yl)-N-(3-methyloxetan-3-yl)-8-(2-oxa-7-azaspiro[3.5]nonan-7-yl)imidazo[1,5-a]pyridine-6-sulfonamide] | – | – | 0.86 nM | 500 to 5000 nM | < 100 nM | 22.9 nM | < 100 nM | 802 nM
7 | O=S(=O)(NC1(CF)CC1)c1cc(N2CCC3(CCO3)CC2)c2nnc(-c3nnc(C(F)F)s3)n2c1 [Example 110, 3-(5-(difluoromethyl)-1,3,4-thiadiazol-2-yl)-N-(1-(fluoromethyl)cyclopropyl)-8-(1-oxa-7-azaspiro[3.5]nonan-7-yl)-[1,2,4]triazolo[4,3-a]pyridine-6-sulfonamide] | – | – | 14 nM | 500 to 5000 nM | < 100 nM | 89.5 nM | < 100 nM | 850 nM
8 | C#CC1(NS(=O)(=O)c2cc(N3CCN(C(=O)C(C)C)CC3)c3nnc(-c4nnc(C(F)F)s4)n3c2)CC1 [Example 102, 3-(5-(difluoromethyl)-1,3,4-thiadiazol-2-yl)-N-(1-ethynylcyclopropyl)-8-(4-isobutyrylpiperazin-1-yl)-[1,2,4]triazolo[4,3-a]pyridine-6-sulfonamide] | – | – | 2.54 nM | 5000 to 30000 nM | < 100 nM | 32.1 nM | < 100 nM | 5000 nM

Second part, the molecule after the results:

Row | PXR Activation @30 uM (Fold) (PXR) | PXR Activation @30 uM (% Ctrl) (PXR) | IC50 (PARG; PARG, TFMU-ADPr substrate) | IC50 (HCC1806; Homo sapiens, HCC1806, 168 h) | IC50 (PARG; [2]) | IC50 [1, 3] | IC50 [1, 4] | IC50 (HCC1806) | SMILES
9 | 1.1 Fold | 5 % Ctrl | 0.21 nM | 234 nM | – | – | – | – | COC1(C(=O)N2CCN(c3cc(S(=O)(=O)NC4(C)CC4)cn4c(-c5nnc(C(F)F)s5)ncc34)CC2)CNC1 [Example 311, 3-(5-(difluoromethyl)-1,3,4-thiadiazol-2-yl)-8-(4-(3-methoxyazetidine-3-carbonyl)piperazin-1-yl)-N-(1-methylcyclopropyl)imidazo[1,5-a]pyridine-6-sulfonamide]
10 | 1.6 Fold | 12 % Ctrl | 11.5 nM | 700 nM | – | – | – | – | N#CC1(NS(=O)(=O)c2cc(N3CCN(C(=O)c4ccncc4)CC3)c3cnc(-c4nnc(C(F)(F)F)s4)n3c2)CC1 [Example 254, N-(1-cyanocyclopropyl)-8-(4-isonicotinoylpiperazin-1-yl)-3-(5-(trifluoromethyl)-1,3,4-thiadiazol-2-yl)imidazo[1,5-a]pyridine-6-sulfonamide]
11 | 1.1 Fold | 7 % Ctrl | 16.6 nM | 310 nM | – | – | – | – | CC1(NS(=O)(=O)c2cc(N3CCN(C(=O)[C@@H]4CCN4)CC3)c3cnc(-c4nnc(C(F)(F)F)s4)n3c2)CC1 [Example 284, (S)-8-(4-(azetidine-2-carbonyl)piperazin-1-yl)-N-(1-methylcyclopropyl)-3-(5-(trifluoromethyl)-1,3,4-thiadiazol-2-yl)imidazo[1,5-a]pyridine-6-sulfonamide]
12 | 1.6 Fold | 15 % Ctrl | 4.37 nM | 137 nM | – | – | – | – | CN1CC[C@@H]1C(=O)N1CCN(c2cc(S(=O)(=O)NC3(C)CC3)cn3c(-c4nnc(C(F)(F)F)s4)ncc23)CC1 [Example 287, (R)-8-(4-(1-methylazetidine-2-carbonyl)piperazin-1-yl)-N-(1-methylcyclopropyl)-3-(5-(trifluoromethyl)-1,3,4-thiadiazol-2-yl)imidazo[1,5-a]pyridine-6-sulfonamide]

Reference: patent publication US20260258035A1, “FIVE-MEMBERED AND SIX-MEMBERED NITROGEN-CONTAINING COMPOUND, AND INTERMEDIATE, PREPARATION METHOD AND USE THEREOF” (HANGZHOU SYNRX THERAPEUTICS BIOMEDICAL TECHNOLOGY CO., LTD., priority 2022, published 2026)
